# Data reported in patent publication US20040209954A1, “Compositions and methods for treating body malodor and fungal overgrowth in mammals” (priority 2003, published 2004).
# Experiments:
# Assay type in all cases: cell-based
# [1] = test system: A. Niger; test: Minimum inhibitory concentration (MIC) versus A. niger
# Description: In the instance of anti-fungal activity, detailed analysis has been carried out with a prototypical pathogen, Trichophytone mentagrophytes. The testing was conducted and illustrates the activity of the ACQA agents that are the subject of this invention. A Time Kill (D-Value) study (ASTM protocol #1891-97 Standard Guide For Determination Of A Survival Curve For Antimicrobial Agents Against Selected Microorganisms And Calculation Of A D-value And Concentration Coefficient) was carried out to screen for the antifungal activity of glycopyrrolate (3%). Testing was done to determine the speed at which the product kills a representative test organism, which was Trichophyton mentagrophytes, a representative dermatophyte-causing species. Determination of the minimum inhibitory concentration (MIC) versus A. Niger, a prototypical fungi was also initiated. The vehicle was 65% water/35% ethanol.
# (§1) Additional scientific investigation was completed to verify the drug class aspects of this invention. […] Specifically, Mepenzolate bromide and Ipratropium bromide were evaluated utilizing standardized microbiological test methods for minimum inhibitory concentration (MIC) versus A. niger and C. albicans. MICs in the range of 1% were observable, confirming the antifungal activity of this class of compound. Insofar as ipratropium is used for intranasal purposes, it is apparent that the discovered property is not predicted by any known attribute of this class of drugs.
# [2] = test system: Trichophyton mentagrophytes; test: Time Kill (D-Value) study, antifungal; conditions: glycopyrrolate 3%, vehicle 65% water/35% ethanol
# Text: (§2) In Vitro and in vivo tests can be used to show the efficacy of antimicrobial products. With appropriate controls and methods In Vitro tests are applicable to all products. The time-to-kill test is used to determine the killing kinetics and activity spectrum of antimicrobials. In this example, the test was, as is usual, performed in suspension. The principle is to place the product or agent in contact with an inoculum for a specified period of time. At the end of the contact time, the mixture is inactivated by dilution into neutralizing broth. Serial dilutions in appropriate broth are performed and the number of surviving bacterial observed on solid culture media. It is general practice to test agents so that the final concentration is representative of the use concentration of the product.
# In the instance of anti-fungal activity, detailed analysis has been carried out with a prototypical pathogen, Trichophytone mentagrophytes. The testing was conducted and illustrates the activity of the ACQA agents that are the subject of this invention. A Time Kill (D-Value) study (ASTM protocol #1891-97 Standard Guide For Determination Of A Survival Curve For Antimicrobial Agents Against Selected Microorganisms And Calculation Of A D-value And Concentration Coefficient) was carried out to screen for the antifungal activity of glycopyrrolate (3%). […]
# [3] = test system: Corynebacterium vitaeruminis; test: Time Kill (D-Value) study, antibacterial; conditions: glycopyrrolate 3%, vehicle 65% water/35% ethanol
# Text: as §2
# (§3) Similarly, In Vitro and In Vivo tests can be used to show the efficacy of antimicrobial products against bacterial species. Such a Time Kill (D-Value) study was conducted and illustrates the antibacterial activity of the ACQA agents that are the subject of this invention. In this case, the study was carried out to screen for the antibacterial activity of glycopyrrolate (3%) and triclosan (0.3%). Testing was done to determine the speed and MIC at which the product kills representative test organisms, which were Micrococcus luteous (syn ATTC 9341 changed to Kocuria rhizophila), Staphylococcos epidermidis and Corynebacterium vitaeruminis, representative odor-causing species. Once again, the vehicle was 65% water/35% ethanol.
# [4] = test system: Micrococcus luteous (syn ATTC 9341 changed to Kocuria rhizophila); test: Time Kill (D-Value) study, antibacterial; conditions: glycopyrrolate 3%, vehicle 65% water/35% ethanol
# Text: as §2, §3
# [5] = test system: Staphylococcos epidermidis; test: Time Kill (D-Value) study, antibacterial; conditions: glycopyrrolate 3%, vehicle 65% water/35% ethanol
# Text: as §2, §3
# [6] = test system: C. albicans; test: Minimum inhibitory concentration (MIC) versus C. albicans
# Description: as §1
MIC versus A. niger [1] [%],Structure (SMILES),time to antifungal effect over and above vehicle in D Value study [2] [min],time to kill in D Value study [3] [min],time to kill in D Value study [4] [min],time to kill in D Value study [5] [min],MIC versus C. albicans [6] [%]
> 0.1,C[N+]1(C)CCC(OC(=O)C(O)(c2ccccc2)C2CCCC2)C1 (stereo not drawn) [glycopyrrolate],24,4,4,4,–
~1,C[N+]1(C)CCCC(OC(=O)C(O)(c2ccccc2)c2ccccc2)C1 (stereo not drawn) [Mepenzolate bromide],–,–,–,–,~1

Structure (SMILES),MIC versus A. niger [1] [%],time to antifungal effect over and above vehicle in D Value study [2] [min],time to kill in D Value study [3] [min],time to kill in D Value study [4] [min],time to kill in D Value study [5] [min],MIC versus C. albicans [6] [%]
CC(C)[N+]1(C)[C@@H]2CC[C@H]1CC(OC(=O)C(CO)c1ccccc1)C2.[Br-] (stereo partly drawn) [Ipratropium bromide],~1,–,–,–,–,~1
